Results taken from patent US6787562B2, “Substituted aryl and heteroaryl compounds as E-type prostaglandin antagonists” (Zeneca Ltd., priority 1995, dated 2004).

Key:
guinea pig ileum = settings: cited from earlier work
dog fundus = settings: cited from earlier work

| Structure (SMILES) | melting point [°C] | effect of PGE2 on tissue blocked (guinea pig ileum) | effect of PGE2 on tissue blocked (dog fundus) |
| --- | --- | --- | --- |
| O=C(O)c1ccc(NCc2cc(Br)ccc2CCc2ccccc2)cc1 [Example 4, 4-[N-(5-Bromo-2-(phenethyl)benzyl)amino]Benzoic Acid] | 126 to 127 | – | – |
| CCN(Cc1ccccc1Oc1ccccc1)c1ccc(C(=O)O)nn1 [Example 12, 6-(N-Ethyl-N-(2-phenoxybenzyl)amino)pyridazine-3-carboxylic Acid] | 70 to 75 | – | – |
| CCN(Cc1ccccc1Oc1ccccc1)c1ccc(C(=O)O)cn1 [Example 13, 2-(N-ethyl-N-(2-phenoxybenzyl)amino)pyridine-5-carboxylic Acid] | 170.5 to 172 | – | – |
| O=C(O)c1ccc(SCc2ccccc2OCc2ccccc2)cc1 [Example 18, 4-[2-Benzyloxybenzylthio]benzoic Acid] | 144 | – | – |
| O=C(Nc1cccnc1)c1ccc(SCc2ccccc2OCc2ccccc2)cc1 [Example 19, N-(3-Pyridyl)-4-[2-benzyloxybenzylthio]benzamide] | 108 | – | – |
| O=C(O)c1ccc(OCc2ccccc2OCc2ccccc2)cc1 [Example 21, 4-(2-(Benzyloxy)benzyloxy)benzoic Acid] | 176.8 to 178.8 | – | – |
| CC(Oc1ccc(C(=O)O)cc1)c1ccccc1OCc1ccccc1 (centres unmarked) [Example 22, 4-(1-(2-(Benzyloxy)phenyl)ethoxy)benzoic Acid] | 108 | – | – |
| O=C(O)c1ccc(OCc2ccccc2CCc2ccccc2)cc1 [Example 23, 4-(2-(phenethyl)benzyloxy)benzoic Acid] | 178 to 180 | – | – |
| CC(=O)NNC(=O)N1Cc2ccccc2Oc2ccc(Cl)cc21 [SC-19220] | – | blocks the effect of PGE2 | blocks the effect of PGE2 |

Further lines, with some results ahead:

| melting point [°C] | Structure (SMILES) | effect of PGE2 on tissue blocked (guinea pig ileum) | effect of PGE2 on tissue blocked (dog fundus) |
| --- | --- | --- | --- |
| 90 to 91 | O=C(O)c1ccc(CCCc2ccccc2Sc2ccccc2)cc1 [Example 32, 4-[3-(2-(phenylthio)phenyl)propyl]benzoic Acid] | – | – |
| 134 to 137 | O=C(O)c1ccc(CCc2ccccc2CCc2ccccc2)cc1O [Example 33, 2-Hydroxy-4-[(2-phenethyl)phenethyl]benzoic Acid] | – | – |
| 135 to 136 | O=C(O)c1ccc(CCCc2ccccc2Cc2ccccc2)cc1 [Example 34, 4-[3-(2-benzylphenyl)propyl]benzoic Acid] | – | – |
| 216 to 217 | O=C(O)c1ccc(CNc2cc(Br)ccc2OCc2ccccc2)cc1 [Example 37, 4-[N-(2-Benzyloxy-5-bromophenyl)aminomethyl]benzoic Acid] | – | – |
| 94.5 to 95 | CCN(Cc1ccc(C(=O)O)cc1)c1cc(Br)ccc1OCc1ccccc1 [Example 38, 4-[N-(2-Benzyloxy-5-bromophenyl)-N-ethylaminomethyl]benzoic Acid] | – | – |
| 186.5 to 187 | CC(Nc1cc(Br)ccc1OCc1ccccc1)c1ccc(C(=O)O)cc1 (centres unmarked) [Example 39, 4-[1-(N-(2-Benzyloxy-5-bromophenyl)-amino)ethyl]benzoic Acid] | – | – |
| 181.5 to 182 | CC(c1ccc(C(=O)O)cc1)N(C)c1ccc(Br)cc1OCc1ccccc1 (centres unmarked) [Example 40, 4-[1-(N-(2-Benzyloxy-4-bromophenyl)-N-methylamino)ethyl]benzoic Acid] | – | – |
